Assay results published in the NIST ThermoML archive (doi:10.1016/j.jct.2010.05.009).
Numbers after ± are expanded uncertainties.

How the values were obtained:
[1] = 101 kPa, Liquid; for viscosity: Capillary tube (Ostwald / Ubbelohde) method; for mass density: Vibrating tube method
[2] = refractive index (Na D-line) (dimensionless); settings: 101.33 kPa, Liquid, Standard Abbe refractometry
[3] = refractive index (Na D-line) (dimensionless); xn = mol fraction of the nth substance listed; settings: 101 kPa, Liquid, Standard Abbe refractometry
[4] = xn = mol fraction of the nth substance listed; settings: 101 kPa, Liquid; for viscosity: Capillary tube (Ostwald / Ubbelohde) method; for mass density: Vibrating tube method

Structure (SMILES) | viscosity ([1]; 288.15 K) | mass density ([1]; 288.15 K) | viscosity ([1]; 298.15 K) | mass density ([1]; 298.15 K) | viscosity ([1]; 308.15 K) | mass density ([1]; 308.15 K) | refractive index ([2]; 288.15 K) | refractive index ([2]; 298.15 K) | refractive index ([2]; 308.15 K) | refractive index ([3]; 288.15 K, x1 = 1) | refractive index ([3]; 298.15 K, x1 = 1) | refractive index ([3]; 308.15 K, x1 = 1) | viscosity ([4]; 288.15 K, x1 = 1) | mass density ([4]; 288.15 K, x1 = 1) | viscosity ([4]; 298.15 K, x1 = 1) | mass density ([4]; 298.15 K, x1 = 1) | viscosity ([4]; 308.15 K, x1 = 1) | mass density ([4]; 308.15 K, x1 = 1) | other results
CCC(C)(C)O [2-methylbutan-2-ol] | 5.867 ± 0.043 mPa·s | 814.01 ± 0.24 kg/m3 | 3.478 ± 0.027 mPa·s | 804.88 ± 0.24 kg/m3 | 2.504 ± 0.019 mPa·s | 795.52 ± 0.24 kg/m3 | 1.4062 ± 0.0004 | 1.4015 ± 0.0004 | 1.3968 ± 0.0004 | – | – | – | – | – | – | – | – | – | –
CCC(C)(C)O [2-methylbutan-2-ol] + CCCN | – | – | – | – | – | – | – | – | – | 1.4062 ± 0.0004 | 1.4015 ± 0.0004 | 1.3968 ± 0.0004 | 5.867 ± 0.043 mPa·s | 814.01 ± 0.24 kg/m3 | 3.478 ± 0.027 mPa·s | 804.88 ± 0.24 kg/m3 | 2.504 ± 0.019 mPa·s | 795.52 ± 0.24 kg/m3 | –
CCCN [propan-1-amine] | 0.3851 ± 0.0034 mPa·s | 721.57 ± 0.25 kg/m3 | 0.3585 ± 0.0033 mPa·s | 711.08 ± 0.25 kg/m3 | 0.3222 ± 0.003 mPa·s | 700.4 ± 0.25 kg/m3 | 1.3899 ± 0.0004 | 1.3844 ± 0.0004 | 1.3784 ± 0.0004 | – | – | – | – | – | – | – | – | – | –
C1CCOC1 [tetrahydrofuran] | 0.4991 ± 0.0043 mPa·s | 892.92 ± 0.23 kg/m3 | 0.454 ± 0.004 mPa·s | 882.03 ± 0.24 kg/m3 | 0.4172 ± 0.0037 mPa·s | 871.01 ± 0.24 kg/m3 | 1.4086 ± 0.0004 | 1.4037 ± 0.0004 | 1.3987 ± 0.0004 | – | – | – | – | – | – | – | – | – | –
C1CCOC1 [tetrahydrofuran] + CCC(C)(C)O | – | – | – | – | – | – | – | – | – | – | – | – | – | – | – | – | – | – | refractive index ([3]; 288.15 K, x2 = 0): 1.4086 ± 0.0004; refractive index ([3]; 298.15 K, x2 = 0): 1.4037 ± 0.0004; refractive index ([3]; 308.15 K, x2 = 0): 1.3987 ± 0.0004; viscosity ([4]; 288.15 K, x2 = 0): 0.4991 ± 0.0043 mPa·s; mass density ([4]; 288.15 K, x2 = 0): 892.92 ± 0.23 kg/m3; viscosity ([4]; 298.15 K, x2 = 0): 0.454 ± 0.004 mPa·s; mass density ([4]; 298.15 K, x2 = 0): 882.03 ± 0.24 kg/m3; viscosity ([4]; 308.15 K, x2 = 0): 0.4172 ± 0.0037 mPa·s; mass density ([4]; 308.15 K, x2 = 0): 871.01 ± 0.24 kg/m3
C1CCOC1 [tetrahydrofuran] + CCCN | – | – | – | – | – | – | – | – | – | 1.4086 ± 0.0004 | 1.4037 ± 0.0004 | 1.3987 ± 0.0004 | 0.4991 ± 0.0043 mPa·s | 892.92 ± 0.23 kg/m3 | 0.454 ± 0.004 mPa·s | 882.03 ± 0.24 kg/m3 | 0.4172 ± 0.0037 mPa·s | 871.01 ± 0.24 kg/m3 | –
